Measurements reported in patent US20070203134A1, “Benzimidazole Acetonitriles” (APPLIED RESEARCH SYSTEMS ARS HOLDING N.V., priority 2004, published 2007).

System: db/db mice
Test: Experimental model of type II diabetes (oral postprandial glycemia in db/db mice)
Type: in vivo
Settings: 50 mg/kg per os, 4 hrs after drug administration, compared to vehicle treated Group 1
Procedure: b) In Vivo Assay: Experimental Model of Type II Diabetes (oral Postprandial Glycemia in db/db Mice)
The following assay aims at determining the anti-diabetic effect of the test compounds of formula (I) in a model of postprandial glycemia in db/db mice, in vivo.
The assay was performed as follows:
A total of 24 db/db mice (about 8-9 weeks; obtained from IFFACREDO, l'Arbreste, France) were fasted during 20 hours.
2 groups, each consisting of 6 animals were formed: • Group 1: The animals were administered (per os) a dose of 10 mg/kg of vehicle. • Group 2: The animals were administered per os) a dose of 50 mg/kg of the test compound according to formula (D.
After oral administration of the compounds of formula (I) solubilized or suspended in CarboxyMethylCellulose (0.5%), Tween 20 (0.25%) and water as vehicle, the animals had access to commercial food (D04, UAR, Villemoisson/Orge, France) ad libitum. The diabetic state of the mice was verified by determining the blood glucose level before drug administration. Blood glucose and serum insulin levels were then determined 4 hrs after drug administration.
The determination of the blood glucose level was performed using a glucometer (Precision Q.I.D., Medisense, Abbot, ref. 212.62.31). […]
Changes in blood glucose and serum insulin of drug treated mice were expressed as a percentage of control (group 1: vehicle treated mice).

| SMILES | blood glucose level reduced |
| --- | --- |
| CCN1/C(=C(\C#N)c2nc(NC3CCC3)ncc2C)Nc2ccccc21 [Example 3] | about 28% |

Same assay, conditions: serum insulin, 50 mg/kg per os, 4 hrs after drug administration, compared to vehicle treated Group 1

| SMILES | insulin level reduced |
| --- | --- |
| CCN1/C(=C(\C#N)c2nc(NC3CCC3)ncc2C)Nc2ccccc21 [Example 3] | about 58% |

Target: human GSK3 beta (Homo sapiens, UniProt P49841)
Sequence (P49841 whole entry): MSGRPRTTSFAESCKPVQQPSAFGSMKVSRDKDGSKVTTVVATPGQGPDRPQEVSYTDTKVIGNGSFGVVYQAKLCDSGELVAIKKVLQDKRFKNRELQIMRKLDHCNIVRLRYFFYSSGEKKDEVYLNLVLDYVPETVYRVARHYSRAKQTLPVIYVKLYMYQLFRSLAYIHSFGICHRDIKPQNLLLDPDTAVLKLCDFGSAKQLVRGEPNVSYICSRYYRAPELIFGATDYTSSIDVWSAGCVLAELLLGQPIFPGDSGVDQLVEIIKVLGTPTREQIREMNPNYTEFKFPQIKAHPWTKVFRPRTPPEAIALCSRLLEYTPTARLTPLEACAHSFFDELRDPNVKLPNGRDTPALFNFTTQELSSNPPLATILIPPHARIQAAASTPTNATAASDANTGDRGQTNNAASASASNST
Test: GSK3β in vitro kinase assay (33P-ATP phosphorylation of phospho GS2 peptide)
Type: biochemical
Settings: in vitro potency, read-out: IC50 (μM) GSK3beta
Procedure: GSK3β Assay (see Bioorg. Med. Chem. Lett by Naerum et al. 12 p. 1525-1528 (2002))
In a final reaction volume of 25 μl, GSK3β (h) (5-10 mU) is incubated with 8 mM MOPS pH 7.0, 0.2 mM EDTA, 20 μM […](p)EDEEE (being the GSK3 substrate; a phospho GS2 peptide), 10 mM Mg Acetate and [γ-^33P-ATP] (Specific activity approx. 500 cpm/pmol, concentration as required). The reaction is initiated by the addition of Mg^2+ [γ-^33P-ATP]. After incubation for 40 minutes at room temperature, the reaction is stopped by the addition of 5 μl of a 3% phosphoric acid solution. 10 μl of the reaction is then spotted onto a P30 filtermat and washed three times for 5 minutes in 50 mM phosphoric acid and once in methanol prior to drying and the degree of phosphorylation of the substrate is determined by scintillation counting.

| SMILES | IC50 |
| --- | --- |
| CCN1/C(=C(\C#N)c2nc(NC(=O)CCCNC(=O)OC(C)(C)C)ncc2C)Nc2ccccc21 [Example 73, tert-butyl[4-({4-[(Z)-cyano(1-ethyl-1,3-dihydro-2H-benzimidazol-2-ylidene)methyl]-5-methylpyrimidin-2-yl}amino)-4oxobutyl]carbamate] | < 10 µM |
| CCN1/C(=C(\C#N)c2nc(NC(=O)Cc3ccccc3OC)ncc2C)Nc2ccccc21 [Example 79, N-{4-[(Z)-cyano(1-ethyl-1,3-dihydro-2H-benzimidazol-2-ylidene)methyl]-5-methylpyrimidin-2-yl}-2-(2-methoxyphenyl)acetamide] | < 10 µM |
| CCN1/C(=C(\C#N)c2nc(NC(=O)C3CN(C(=O)OC(C)(C)C)CCO3)ncc2C)Nc2ccccc21 (stereo not drawn) [Example 84, tert-butyl 2-[({4-[(Z)-cyano(1-ethyl-1,3-dihydro-2H-benzimidazol-2-ylidene)methyl]-5-methylpyrimidin-2-yl}amino)carbonyl]morpholine-4-carboxylate] | < 10 µM |

Continued, values first:

| IC50 | SMILES |
| --- | --- |
| < 10 µM | CCN1/C(=C(\C#N)c2nc(NC3CCCCCC3)ncc2C)Nc2ccccc21 [Example 12, (2Z)-[2-(cycloheptylamino)-5-methylpyrimidin-4-yl](1-ethyl-1,3-dihydro-2H-benzimidazol-2-ylidene)acetonitrile] |
| < 10 µM | N#C/C(=C1/Nc2ccccc2N1C1CCC1)c1ccnc(NCCCN2CCCC2=O)n1 [Example 15, (2Z)-(1-cyclobutyl-1,3-dihydro-2H-benzimidazol-2-ylidene)(2-{[3-(2-oxopyrrolidin-1-yl)propyl]amino}pyrimidin-4-yl)acetonitrile] |
| < 10 µM | Cc1cnc(NC2CCCC2)nc1C(C#N)=C1Nc2ccccc2N1 [Example 28, [2-(cyclopentylamino)-5-methylpyrimidin-4yl](1,3-dihydro-2H-benzimidazol-2-ylidene)acetonitrile] |
| < 10 µM | CCN1/C(=C(\C#N)c2cc(NCCc3cccnc3)ncn2)Nc2ccccc21 [Example 46] |
